Our source for the inhibition and IC50 values is ChEMBL document CHEMBL5126549, “Overview of SIRT5 as a potential therapeutic target: Structure, function and inhibitors” (Eur J Med Chem, 2022).

*1 amine or outer side, *2 acyl side, *3 side chain or, on linkers, in order; H or OH if unused. Where a SMILES comes first, the peptide text is derived from it. Bridges are numbered along the chain shown (N, C = ends). [ ]: non-standard residue; d: D form. X1 = O=C(O)CCNC(=S)NCCCC[C@H](N[*:1])C(=O)[*:2]; Suberoyl = O=C(CCCCCCC(=O)[*:2])[*:1]

The target in test [1] is T1, NAD-dependent protein deacylase sirtuin-5, mitochondrial (Homo sapiens, UniProt Q9NXA8). Briefly: Inhibition of SIRT5 (unknown origin) at 30 uM relative to control.
Target sequence in this assay (Q9NXA8 37-310 limits assumed): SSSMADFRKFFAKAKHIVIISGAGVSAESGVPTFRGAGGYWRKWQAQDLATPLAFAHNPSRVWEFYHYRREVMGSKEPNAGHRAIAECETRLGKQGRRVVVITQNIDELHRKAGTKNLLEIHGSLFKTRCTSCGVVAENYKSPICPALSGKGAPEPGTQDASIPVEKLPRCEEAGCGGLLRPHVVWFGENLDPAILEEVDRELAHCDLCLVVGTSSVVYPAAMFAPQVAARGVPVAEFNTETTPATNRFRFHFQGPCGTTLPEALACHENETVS
In test [2] the target is T1, NAD-dependent protein deacylase sirtuin-5, mitochondrial. Briefly: Inhibition of SIRT5 (unknown origin) at 100 uM relative to control.
Target sequence in this assay (Q9NXA8 37-310 limits assumed): as above
The target is the same in test [3]. Briefly: Inhibition of SIRT5 (unknown origin).
Target sequence in this assay (Q9NXA8 whole entry): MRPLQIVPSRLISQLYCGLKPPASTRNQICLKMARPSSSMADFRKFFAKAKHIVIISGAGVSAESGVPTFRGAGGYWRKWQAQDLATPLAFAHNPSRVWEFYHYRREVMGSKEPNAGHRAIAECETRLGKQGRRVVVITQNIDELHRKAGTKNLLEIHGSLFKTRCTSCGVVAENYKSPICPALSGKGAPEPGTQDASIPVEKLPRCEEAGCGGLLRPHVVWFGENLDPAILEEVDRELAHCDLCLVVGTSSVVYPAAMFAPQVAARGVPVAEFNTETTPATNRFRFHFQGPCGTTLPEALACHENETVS
The target is the same in test [4]. Kind of test: Inhibition of human recombinant SIRT5 using Benzyl-Lys(succinyl)-AMC as substrate incubated for 2 hrs by fluorescence based assay.
Target sequence in this assay (Q9NXA8 whole entry): as above
The target is the same in test [5]. Briefly: Inhibition of GST-tagged SIRT5 (unknown origin) incubated for 5 mins by HPLC based analysis.
Target sequence in this assay (Q9NXA8 whole entry): as above
The target in test [6] is T2, NAD-dependent protein deacetylase sirtuin-1 (Homo sapiens, UniProt Q96EB6).
T2 sequence (Q96EB6 whole entry): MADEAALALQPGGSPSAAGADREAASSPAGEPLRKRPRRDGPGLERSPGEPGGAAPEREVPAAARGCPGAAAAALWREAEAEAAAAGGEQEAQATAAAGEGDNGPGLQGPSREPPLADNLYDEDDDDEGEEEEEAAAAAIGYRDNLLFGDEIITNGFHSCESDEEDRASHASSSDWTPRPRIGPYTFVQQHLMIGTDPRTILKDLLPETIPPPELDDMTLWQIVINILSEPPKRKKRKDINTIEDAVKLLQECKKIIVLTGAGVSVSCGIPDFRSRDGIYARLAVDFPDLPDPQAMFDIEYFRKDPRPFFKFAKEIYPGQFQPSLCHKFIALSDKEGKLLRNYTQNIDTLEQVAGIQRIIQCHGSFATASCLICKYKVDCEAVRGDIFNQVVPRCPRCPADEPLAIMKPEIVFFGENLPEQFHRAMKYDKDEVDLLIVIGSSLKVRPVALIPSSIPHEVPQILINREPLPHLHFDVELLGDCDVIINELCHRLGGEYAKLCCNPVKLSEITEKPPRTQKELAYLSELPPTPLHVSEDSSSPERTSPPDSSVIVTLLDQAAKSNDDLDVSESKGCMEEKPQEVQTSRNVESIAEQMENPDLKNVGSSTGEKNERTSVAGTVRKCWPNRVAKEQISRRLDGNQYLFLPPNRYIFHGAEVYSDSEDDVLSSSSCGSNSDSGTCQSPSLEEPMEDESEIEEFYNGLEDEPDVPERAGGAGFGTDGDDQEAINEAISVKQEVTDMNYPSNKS
Kind of test: Inhibition of human N-terminal His6 tagged SIRT1 (183-505-(GGGS)2-641-665 residues) expressed in Escherichia coli BL21 cells.

The target in test [7] is T3, NAD-dependent protein deacetylase sirtuin-3, mitochondrial (Homo sapiens, UniProt Q9NTG7).
T3 sequence (Q9NTG7 whole entry): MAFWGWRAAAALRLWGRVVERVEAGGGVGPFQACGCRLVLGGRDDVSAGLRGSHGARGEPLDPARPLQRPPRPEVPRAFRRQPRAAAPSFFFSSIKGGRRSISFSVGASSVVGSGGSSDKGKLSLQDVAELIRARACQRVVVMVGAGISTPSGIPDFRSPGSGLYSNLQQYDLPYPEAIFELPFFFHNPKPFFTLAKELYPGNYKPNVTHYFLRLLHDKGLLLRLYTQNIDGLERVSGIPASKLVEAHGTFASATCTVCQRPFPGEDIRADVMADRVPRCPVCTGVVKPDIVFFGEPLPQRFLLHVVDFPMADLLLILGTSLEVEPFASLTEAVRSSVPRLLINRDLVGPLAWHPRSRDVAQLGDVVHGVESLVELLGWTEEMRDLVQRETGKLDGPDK
Briefly: Inhibition of human SIRT3 (118 to 399 aa) expressed in Escherichia coli BL21 cells.

Test [8] has as its target T2, NAD-dependent protein deacetylase sirtuin-1. Kind of test: Inhibition of SIRT1 (unknown origin).
In test [9] the target is T4, NAD-dependent protein deacetylase sirtuin-2 (Homo sapiens, UniProt Q8IXJ6).
T4 sequence (Q8IXJ6 whole entry): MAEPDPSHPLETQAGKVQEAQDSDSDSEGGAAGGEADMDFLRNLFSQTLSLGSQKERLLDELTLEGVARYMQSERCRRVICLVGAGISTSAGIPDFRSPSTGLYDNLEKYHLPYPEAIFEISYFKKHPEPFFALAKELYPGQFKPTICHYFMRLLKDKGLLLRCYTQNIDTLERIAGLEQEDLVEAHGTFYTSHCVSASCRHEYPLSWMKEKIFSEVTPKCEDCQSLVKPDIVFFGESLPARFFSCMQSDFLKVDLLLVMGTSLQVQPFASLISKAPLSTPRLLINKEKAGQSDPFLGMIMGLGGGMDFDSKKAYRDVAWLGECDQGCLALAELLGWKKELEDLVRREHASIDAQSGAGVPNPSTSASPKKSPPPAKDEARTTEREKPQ
Kind of test: Inhibition of SIRT2 (unknown origin).

Test [10] has as its target T1, NAD-dependent protein deacylase sirtuin-5, mitochondrial. Kind of test: Inhibition of GST-tagged SIRT5 (unknown origin) incubated for 10 mins by HPLC based analysis.
Target sequence in this assay (Q9NXA8 whole entry): as the sequence (Q9NXA8 whole entry) above

The inhibition is how much of the control response was suppressed. Read a low inhibition as a weak effect. Turning to `O=C(NCCn1c2ccccc2c2ccccc21)Nc1ccc(C(=O)O)cc1`, the figures for the inhibition in test [1] and in test [2] were 35% and 52%, respectively. As usually defined, the IC50 is the concentration at which inhibition is half-maximal. In turn, `O=C(O)CCNC(=S)NCCCC[C@H](NS(=O)(=O)c1cccc(F)c1)C(=O)N[C@@H](Cc1c[nH]c2ccccc12)C(=O)NC1CCCC1` yielded an IC50 in test [3] of 0.11 µM.

Regarding `N#C/C(=C\c1ccc(-c2ccc(C(=O)O)cc2)o1)C(=O)Nc1ccc(C#N)c(F)c1`, the IC50 in test [4] came to 5.9 µM. `CC1(C)CC[C@]2(C(=O)O)[C@H](O)C[C@]3(C)C(=CC[C@@H]4[C@@]5(C)CC[C@H](O)C(C)(C)[C@@H]5CC[C@]43C)[C@@H]2C1`: half-maximal inhibition in [3] (IC50) was put at 40 µM. As to `N=C(N)NCCCC[C@@H]1NC(=O)CCNC(=O)CCC[C@@H](C(N)=O)NC(=O)[C@H](CCCCNC(=S)NCCC(=O)O)NC1=O`, in test [3], the IC50 came out at 4 µM. Compound `CC(=O)N[C@H]1CCCCNC(=O)CCCCCCC(=O)NCCCC[C@@H](C(=O)N[C@H](C(N)=O)[C@@H](C)O)NC(=O)[C@H](CCCCNC(=S)NCCC(=O)O)NC(=O)[C@H](CCCNC(=N)N)NC1=O` (Ac-KR[X1]KT-NH2; linker 1-4 via Suberoyl) came in with an IC50 in [5] of 7 µM. In turn, `CC1(C)CC[C@]2(C(=O)O)CC[C@]3(C)C(=CC[C@@H]4[C@@]5(C)CC[C@H](O)C(C)(C)[C@@H]5CC[C@]43C)[C@@H]2C1` [OLEANOLIC_ACID] yielded an IC50 in test [3] of 70 µM. Turning to `CCn1c(=O)n(CC(C)C)c(=O)c2[nH]c(SSc3nc4c([nH]3)c(=O)n(CC(C)C)c(=O)n4CC)nc21`, the concentration for half-maximal inhibition (IC50) in test [6] is 1770 nM; in test [7], 430 nM. As to `N#C/C(=C\c1ccc(-c2ccc(C(=O)O)cc2)o1)C(=O)Nc1ccc(Cl)c([N+](=O)[O-])c1`, the IC50 in test [4] was 9.26 µM. Take `O=C(O)CC(=S)NCCCC[C@H](NC(=O)OCc1ccccc1)C(=O)Nc1ccccc1`: the IC50 in [3] was found to be 5 µM; in test [8], 256 µM; in test [9], 256 µM. As for `O=C(O)CCNC(=S)NCCCCC(NC(=O)OCc1ccccc1)C(=O)Nc1ccccc1O` (stereo unspecified), the IC50 in test [10] is less than 15 µM. With `CC1=NN(c2ccc(C)c(Cl)c2)C(=O)/C1=C\c1ccc(-c2ccc(C(=O)O)cc2)o1`, in [4], the IC50 was 18.3 µM. `O=C(O)CCNC(=S)NCCCC[C@H](NS(=O)(=O)c1cccc(F)c1)C(=O)N[C@@H](Cc1c[nH]c2ccccc12)C(=O)NC1CCC1` had an IC50 in [3] of less than 0.3 µM. Same read-out and setting: the result for `O=C(O)CCNC(=S)NCCCC[C@H](NS(=O)(=O)c1cccc(F)c1)C(=O)N[C@@H](Cc1c[nH]c2ccccc12)C(=O)NC1CC1` reads less than 0.3 µM. As for `CC(=O)NC(CCCCNC(=S)NCCC(=O)O)C(=O)Nc1cccc(O)c1` (stereo unspecified), in test [10], the IC50 is less than 15 µM. On the same count and under the same terms, in the case of `O=C(O)CCNC(=S)NCCCCC(NC(=O)OCc1ccccc1)C(=O)Nc1ccc(O)cc1` (stereo unspecified) it was less than 15 µM. For the compound `N=C(N)NCCCC[C@@H]1NC(=O)CCCCC(=O)NCCCC[C@@H](C(N)=O)NC(=O)[C@H](CCCCNC(=S)NCCC(=O)O)NC1=O`, the IC50 in test [3] was 6.5 µM. In test [3], `N=C(N)NCCCC[C@@H]1NC(=O)CCCCCCC(=O)NCCCC[C@@H](C(N)=O)NC(=O)[C@H](CCCCNC(=S)NCCC(=O)O)NC1=O` yielded an IC50 of 13.2 µM.

The compound `CC(C)(C)OC(=O)NC(CCCCNC(=S)NCCC(=O)O)C(=O)Nc1cccc(O)c1` (stereo unspecified) registered an IC50 in test [10] of less than 15 µM.

In [5], `CC(=O)N[C@H]1CCCCNC(=O)CNC(=O)CCCCCCC(=O)NC(=O)NCCCC[C@@H](C(=O)N[C@H](C(N)=O)[C@@H](C)O)NC(=O)[C@H](CCCCNC(=S)NCCC(=O)O)NC(=O)[C@H](CCCNC(=N)N)NC1=O` showed an IC50 of 6 µM. For `CNC(=O)c1cccc(NC(=O)/C(C#N)=C/c2ccc(-c3ccc(C(=O)O)cc3)o2)c1`, in test [4], the IC50 was determined as 8 µM. `N=C(N)NCCCC[C@@H]1NC(=O)CCC(=O)NCCCC[C@@H](C(N)=O)NC(=O)[C@H](CCCCNC(=S)NCCC(=O)O)NC1=O`: the IC50 in test [3] was 2.2 µM.
